Reference: patent US20260000670A1 (priority 2022, published 2026)

Experiments:
C57B1/6 mice = assay: transgene expression (hSEAP, hFIX) in serum following rAAV8 re-administration; assay type: in vivo
Procedure: FIG. 1. rAAV8 readministration in mice and Dasatinib treatment. C57B1/6 mice were intravenously dosed on study day 1 with a rAAV8 encoding the hSEAP (human secreted alkaline phosphatase) at the dose of 1E12 vg/kg. On study day 22, they received a second rAAV8 encoding hFIX (human Factor IX) at the dose of 5E13 vg/kg. […] Group 2 (immunized mice, n=10) received both rAAV8 injections. Group 3 mice (n=10) received the two rAAV8 injections and were treated by oral gavage with 50 mg/kg dasatinib twice per day for 7 days starting on the day of first rAAV8 dosing. Blood samples were collected one day before and every 7 days after the first rAAV8 treatment.
FIGS. 4A-4B. Dasatinib treatment allows transgene expression following rAAV re-administration. Serum was isolated from blood collected on study days 0, 8, 15, 21, 29 and 36 (FIG. 1). (FIG. 4A) Expression of the first transgene hSEAP was measured by chemiluminescence. (FIG. 4B) After AAV8 re-administration, expression of the second transgene hFactorIX was measured by ELISA. Mean concentrations are shown +/−SD.
To assess whether dasatinib could efficiently prevent anti-AAV antibody formation after rAAV administration and allow efficient re-administration of rAAV, a study was conducted in mice (FIG. 1). Groups of C57B1/6 mice were intravenously dosed with a first rAAV8 encoding hSEAP (human secreted alkaline phosphatase, under control of a CMV promoter) at the dose of 1E12vg/kg on study day 1. On study day 22, they were dosed with a second rAAV8 encoding hFIX (human Factor IX, under control of a CMV promoter) at the dose of 5E13 vg/kg. […]
Expression of the first transgene hSEAP and second transgene hFIX were measured in the serum samples from the experiment presented above (FIG. 1, Example 1). As expected, human SEAP was detected in the serum of mice from Groups 2 and 3, already 7 days after injection of AAV8-hSEAP on study day 1 (FIG. 4A). […] In contrast, hFIX expression was detected in the serum of all mice from the non-immunized Group 1 (mean: 2107 ng/ml) as well as in most mice from the dasatinib-treated Group 3 (average: 1398 ng/ml).

human whole blood [1] = assay: AAV-mediated cytokine release in human whole blood (one AAV8 pre-immune donor); assay type: cell-based; conditions: dasatinib 12.5 or 50 nM, 24 hrs with 5E11 vg/mL AAV8-hSEAP
Procedure: FIGS. 5A-5B. Effect of dasatinib on AAV-mediated cytokine release in human whole blood. The production of low levels of IFN-γ and IL-6 in whole blood are stimulated after 24 hrs incubation with 5E11 vg/mL of AAV8-hSEAP. […] Depicted are cytokine concentrations (pg/mL+/−SD, left), fold increases over the level measured in the PBS control (middle) and percentages of inhibition of AAV-dependent cytokine release (right, calculated as 100 × (concentration with AAV8 alone-concentration with AAV8 and dasatinib)/(concentration with AAV8 alone)), respectively. (FIG. 5A) Interferon-γ production. (FIG. 5B) IL-6 production.
To assess whether dasatinib could affect AAV-mediated cytokine release, an assay was performed in whole blood from a healthy donor. This donor was seropositive for anti-AAV8 antibodies (IgG titer: 1/21870; IgM titer: 1/810). Whole blood from an AAV8 pre-immune donor was incubated in triplicates with 5E11 vg/mL (GC/mL) of an AAV8-hSEAP vector, in the presence or absence of 12.5 nM or 50 nM dasatinib. Lipopolysaccharide (LPS) and Lemtrada (alemtuzumab, anti-CD52, Genzyme), a monoclonal antibody known to induce strong cytokine release in blood, were used as positive controls at a concentration of 1 μg/ml and 0.1 μg/ml respectively. […] After 24 hrs, plasma supernatants were collected and cytokines measured using Quanterix kits with the SP-X imaging and analysis system (Simoa).

human whole blood [2] = assay: AAV8-dependent cytokine release in human whole blood from four healthy donors with IVIG; assay type: cell-based
Procedure: FIGS. 6A-6C: Dasatinib inhibits AA V8-dependent cytokine release in human whole blood. Fresh whole blood from 4 healthy donors was incubated with either PBS or AAV8-hSEAP (5e11 vg/mL) with IVIG (PRIVIGEN, 1/100) for 24 hrs. Dasatinib was added at the concentration of 50 nM 1 hr before addition of AAV8. In some of the culture wells, a second dose of dasatinib was added 9 hrs after AAV8 treatment (dasa 50 nM 2x). After 24 hrs, the plasma was collected and cytokines measured using Quanterix kits. Depicted are the cytokine fold increases over PBS for IFN-γ and TNF-α (FIG. 6A), IL-6 and IL-1x (FIG. 6B), and IL-2 and IL-1β (FIG. 6C), with the percentages of inhibition in the presence of dasatinib (means +/−SEM).
To study in more detail the effects of dasatinib on AAV-dependent cytokine release, another whole blood assay was performed. Whole blood from four healthy donors was incubated with AAV8-hSEAP (5e11 vg/ml) for 24 hrs. Intravenous Immunoglobulin (IVIG, Privigen) which contains anti-AAV antibodies was added to the blood samples. Dasatinib was added at 50 nM 1 hr before the AAV treatment, PBS was used as a negative control. As the half-life of dasatinib is very short (Lindauer M et al, Recent Results Cancer Res. 2010;184:83-102), a second dasatinib addition was performed 9 hrs after the AAV treatment. After 24 hrs, plasma supernatants were collected and cytokines measured using Quanterix kits. […] Inhibition of AAV-mediated cytokine release likely contributes to the effect of dasatinib on antibody formation.

[3] = dasatinib 50 nM, 24 hrs, AAV8-hSEAP 5e11 vg/ml with IVIG

Cc1nc(Nc2ncc(C(=O)Nc3c(C)cccc3Cl)s2)cc(N2CCN(CCO)CC2)n1 [dasatinib, N-(2-chloro-6-methylphenyl)-2-[[6-[4-(2-hydroxyethyl)-1-piperazinyl]-2-methyl-4-pyrimidinyl]amino]-5-thiazole carboxamide monohydrate]
human SEAP in serum (C57B1/6 mice; Group 3, 7 days after AAV8-hSEAP on study day 1): detected
hFIX expression in serum (average) (C57B1/6 mice; Group 3, after AAV8-hFIX 5E13 vg/kg on day 22, dasatinib 50 mg/kg twice per day for 7 days at first rAAV8 dosing): 1398 ng/mL
hFIX expression detected in serum (C57B1/6 mice; Group 3, after second rAAV8 on day 22): in most mice
IFN-γ production (human whole blood [1]): reduced dose-dependently
IL-6 production (human whole blood [1]): reduced dose-dependently
inhibition of cytokine production with second dasatinib addition versus single addition (human whole blood [2]; dasatinib 50 nM added both 1 hr before and 9 hrs after AAV treatment): more pronounced
production of IFN-Y (human whole blood [2]; [3]): inhibited
production of IL-1β (human whole blood [2]; [3]): inhibited
production of IL-2 (human whole blood [2]; [3]): inhibited
production of IL-6 (human whole blood [2]; [3]): inhibited
production of IL-la (human whole blood [2]; [3]): inhibited
production of TNF-α (human whole blood [2]; [3]): inhibited
